According to PubChem BioAssay AID330 (DTP/NCI, 2004):
“And” between values parts separate entries of the source, which are not always exact repeats. Identical values can stand only once. Inconclusive results and toxic doses are left out. Rule for the calls: active = survival T/C of 150% or more; inactive = T/C below 125% in these data.

Tested on: P388 leukemia ip, CD2F1 mice, survival T/C
Assay: NCI In Vivo Anticancer Drug Screen. Data for tumor model P388 Leukemia (intraperitoneal) in CD2F1 (CDF1) mice
Details: endpoint: median survival time, higher = longer survival
Method in brief: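 Mice carrying the transplanted tumor received test compound or vehicle. Survival was recorded in each group, and the value is the treated-group measurement divided by that of the vehicle-treated control group.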

[1] = dose: 12.5 mg/kg/injection, schedule: Q01DX009 (ip), vehicle: Klucel (hydroxypropylcellulose) (HPC)
[2] = dose: 50.0 mg/kg/injection, schedule: Q01DX005 (ip), vehicle: Klucel (hydroxypropylcellulose) (HPC)
[3] = dose: 100.0 mg/kg/injection, schedule: Q01DX005 (ip), vehicle: Klucel (hydroxypropylcellulose) (HPC)
[4] = dose: 200.0 mg/kg/injection, schedule: Q01DX005 (ip), vehicle: Klucel (hydroxypropylcellulose) (HPC)
[5] = dose: 100.0 mg/kg/injection, schedule: Q01DX005 (ip), vehicle: saline with Tween-80
[6] = dose: 60.0 mg/kg/injection, schedule: Q01DX005 (ip), vehicle: saline with Tween-80
[7] = dose: 120.0 mg/kg/injection, schedule: Q01DX005 (ip), vehicle: saline with Tween-80
[8] = dose: 240.0 mg/kg/injection, schedule: Q01DX005 (ip), vehicle: saline with Tween-80
[9] = dose: 50.0 mg/kg/injection, schedule: Q01DX009 (ip), vehicle: Klucel (hydroxypropylcellulose) (HPC)
[10] = dose: 100.0 mg/kg/injection, schedule: Q01DX009 (ip), vehicle: Klucel (hydroxypropylcellulose) (HPC)
[11] = dose: 25.0 mg/kg/injection, schedule: Q01DX009 (ip), vehicle: Klucel (hydroxypropylcellulose) (HPC)

Measured: T/C

N#CN=[N+]([O-])c1ccc(Cl)cc1
inactive: dose: 3.12 mg/kg/injection, schedule: Q01DX009 (ip), vehicle: Klucel (hydroxypropylcellulose) (HPC) 107 % of control | dose: 6.25 mg/kg/injection, schedule: Q01DX009 (ip), vehicle: Klucel (hydroxypropylcellulose) (HPC) 114 % of control | dose: 6.25 mg/kg/injection, schedule: Q04DX003 (ip), vehicle: Klucel (hydroxypropylcellulose) (HPC) 97 % of control | [1] 98 % of control | dose: 12.5 mg/kg/injection, schedule: Q04DX003 (ip), vehicle: Klucel (hydroxypropylcellulose) (HPC) 95 % of control | dose: 25.0 mg/kg/injection, schedule: Q04DX003 (ip), vehicle: Klucel (hydroxypropylcellulose) (HPC) 98 % of control

NS(=O)(=O)c1ccc(N=NC2Sc3nc4ccccc4n3C2=O)cc1 (configuration not stated)
inactive: dose: 60.0 mg/kg/injection, schedule: Q01DX005 (ip), vehicle: Klucel (hydroxypropylcellulose) (HPC) 94 % of control | dose: 120.0 mg/kg/injection, schedule: Q01DX005 (ip), vehicle: Klucel (hydroxypropylcellulose) (HPC) 91 % of control

N#Cc1c(F)cccc1N(Cc1cccnc1)C(=S)Nc1ccc(Cl)c(Cl)c1
inactive: [2] 110 % of control | [3] 110 % of control | [4] 105 % of control

CCOC(=O)C1CCC(=O)C(CC)=C1C (configuration not stated)
inactive: dose: 50.0 mg/kg/injection, schedule: Q01DX005 (ip), vehicle: saline with Tween-80 103 % of control | [5] 103 % of control | dose: 200.0 mg/kg/injection, schedule: Q01DX005 (ip), vehicle: saline with Tween-80 107 % of control

Nc1nc2c(-c3ccc([N+](=O)[O-])cc3)nnn2c2ccccc12
inactive: dose: 50.0 mg/kg/injection, schedule: Q01DX009 (ip), vehicle: saline with Tween-80 95 % of control | dose: 100.0 mg/kg/injection, schedule: Q01DX009 (ip), vehicle: saline with Tween-80 86 % of control | dose: 200.0 mg/kg/injection, schedule: Q01DX009 (ip), vehicle: saline with Tween-80 95 % of control

Nc1ccn(C2CC(O)C(CO)O2)c(=O)n1 (configuration not stated)
inactive: dose: 4.6 mg/kg/injection, schedule: Q01DX009 (ip), vehicle: water 95 % of control | dose: 9.38 mg/kg/injection, schedule: Q01DX009 (ip), vehicle: water 100 % of control | dose: 18.75 mg/kg/injection, schedule: Q01DX009 (ip), vehicle: water 105 % of control and 87 % of control | dose: 37.5 mg/kg/injection, schedule: Q01DX009 (ip), vehicle: water 112 % of control | dose: 75.0 mg/kg/injection, schedule: Q01DX009 (ip), vehicle: water 96 % of control | dose: 150.0 mg/kg/injection, schedule: Q01DX009 (ip), vehicle: water 103 % of control

O=[N+]([O-])c1ccc(N/N=C\c2c(Cl)n(-c3ccccc3)c3ccccc23)cc1
inactive: dose: 100.0 mg/kg/injection, schedule: Q04DX003 (ip), vehicle: saline with Tween-80 93 % of control | dose: 200.0 mg/kg/injection, schedule: Q04DX003 (ip), vehicle: saline with Tween-80 90 % of control | dose: 400.0 mg/kg/injection, schedule: Q01DX001 (ip), vehicle: saline 95 % of control | dose: 400.0 mg/kg/injection, schedule: Q04DX003 (ip), vehicle: saline with Tween-80 91 % of control

NN1C(=O)CS/C1=N\C(=S)N/N=C1/SCC(=O)N1N
inactive: dose: 0.04 mg/kg/injection, schedule: Q01DX009 (ip), vehicle: saline 94 % of control | dose: 0.09 mg/kg/injection, schedule: Q01DX009 (ip), vehicle: saline 97 % of control | dose: 0.19 mg/kg/injection, schedule: Q01DX009 (ip), vehicle: saline 99 % of control | dose: 0.78 mg/kg/injection, schedule: Q01DX009 (ip), vehicle: saline 98 % of control and 99 % of control

O=C1OCC/C1=C/OC(=O)c1ccccc1
inactive: [6] 93 % of control | [7] 99 % of control | [8] 106 % of control

Cc1ccc2[nH]cc(C3CCCN4CCCCC34)c2c1 (configuration not stated)
inactive: dose: 12.5 mg/kg/injection, schedule: Q01DX001 (ip), vehicle: saline with Tween-80 99 % of control | dose: 25.0 mg/kg/injection, schedule: Q01DX001 (ip), vehicle: saline with Tween-80 100 % of control | dose: 50.0 mg/kg/injection, schedule: Q01DX001 (ip), vehicle: saline with Tween-80 98 % of control | dose: 90.0 mg/kg/injection, schedule: Q01DX001 (ip), vehicle: saline with Tween-80 92 % of control

Cc1cccc(Nc2n[nH]c(N)n2)c1
inactive: [9] 91 % of control | [10] 94 % of control

C/C(=N\N=c1/cc(Cl)n(C)c(=O)n1C)c1ccc(Cl)cc1
inactive: [9] 102 % of control | [10] 99 % of control

C=C(Br)COc1ccc2c(C)cc(=O)oc2c1
inactive: [6] 115 % of control | [7] 100 % of control | [8] 96 % of control

Cc1c2cnccc2c(C)c2c1c1ccccc1n2CCCCCCCCCCn1c2ccccc2c2c(C)c3cnccc3c(C)c21
inactive: dose: 25.0 mg/kg/injection, schedule: Q04DX002 (ip), vehicle: saline with Tween-80 98 % of control | dose: 50.0 mg/kg/injection, schedule: Q04DX002 (ip), vehicle: saline with Tween-80 92 % of control | dose: 100.0 mg/kg/injection, schedule: Q04DX002 (ip), vehicle: saline with Tween-80 89 % of control

NC1CC2CCCCC2CC1(O)c1ccccc1 (configuration not stated)
inactive: [1] 98 % of control | [11] 107 % of control | [9] 107 % of control

Cc1ccc(NC(=O)Nc2cc(S(=O)(=O)O)ccc2Oc2ccccc2Cl)cc1
inactive: dose: 100.0 mg/kg/injection, schedule: Q04DX003 (ip), vehicle: saline sonified 100 % of control | dose: 200.0 mg/kg/injection, schedule: Q04DX003 (ip), vehicle: saline sonified 90 % of control | dose: 400.0 mg/kg/injection, schedule: Q04DX003 (ip), vehicle: saline sonified 100 % of control

[Cu+2].[NH-]C(=O)NC([NH-])=O.[NH-]C(=O)NC([NH-])=O
inactive: dose: 6.25 mg/kg/injection, schedule: Q01DX005 (ip), vehicle: saline with Tween-80 99 % of control | dose: 12.5 mg/kg/injection, schedule: Q01DX005 (ip), vehicle: saline with Tween-80 99 % of control

Cn1c2ccccc2c(=Nc2ccc(S(N)(=O)=O)cc2)c2ccccc21
inactive: [5] 97 % of control

CN(C)CCCN=c1c2ccccc2n(O)c2cccc([N+](=O)[O-])c12
inactive: dose: 1.56 mg/kg/injection, schedule: Q01DX009 (ip), vehicle: saline with Tween-80 123 % of control | dose: 3.12 mg/kg/injection, schedule: Q01DX009 (ip), vehicle: saline 117 % of control | dose: 12.5 mg/kg/injection, schedule: Q01DX009 (ip), vehicle: saline with Tween-80 104 % of control

CC1C(C(=O)NCC(c2ccccc2)c2ccccc2)CC2CCCCN21 (configuration not stated)
inactive: dose: 15.0 mg/kg/injection, schedule: Q01DX005 (ip), vehicle: saline with Tween-80 96 % of control | dose: 30.0 mg/kg/injection, schedule: Q01DX005 (ip), vehicle: saline with Tween-80 92 % of control | [6] 91 % of control and 92 % of control

COC1=C(C)[C@@H]2CC(=O)O[C@@H]3C[C@H]4[C@H](C)C[C@H](OC5OC(CO)C(O)C(O)C5O)C(=O)[C@]4(C)[C@@H](C1=O)[C@@]32C (some centres not stated)
inactive: dose: 5.0 mg/kg/injection, schedule: Q01DX005 (ip), vehicle: Klucel (hydroxypropylcellulose) (HPC) 103 % of control | dose: 10.0 mg/kg/injection, schedule: Q01DX005 (ip), vehicle: Klucel (hydroxypropylcellulose) (HPC) 107 % of control | dose: 20.0 mg/kg/injection, schedule: Q01DX005 (ip), vehicle: Klucel (hydroxypropylcellulose) (HPC) 103 % of control

Clc1ccc(C2=CSC3=NCCN23)cc1
inactive: [1] 111 % of control | [11] 110 % of control

CN1N=Nc2ccccc2C1O (configuration not stated)
inactive: dose: 25.0 mg/kg/injection, schedule: Q01DX005 (ip), vehicle: Klucel (hydroxypropylcellulose) (HPC) 92 % of control | [2] 95 % of control | [3] 116 % of control

CCc1cccc(C)c1NC(=O)/C(Cl)=C(\Cl)C(=O)O
inactive: [6] 104 % of control | [7] 106 % of control

CC1(C)OC(=O)C(=Cc2ccc(-c3ccccc3[N+](=O)[O-])o2)C(=O)O1
inactive: [2] 92 % of control | [3] 105 % of control | [4] 100 % of control

CCCCC(C)N(CCNc1cc(OC)cc2cccnc12)CC(C)C (configuration not stated)
inactive: dose: 12.5 mg/kg/injection, schedule: Q01DX005 (ip), vehicle: saline 106 % of control | dose: 25.0 mg/kg/injection, schedule: Q01DX005 (ip), vehicle: saline 101 % of control | dose: 50.0 mg/kg/injection, schedule: Q01DX005 (ip), vehicle: saline 106 % of control and 97 % of control

[CH3][Sn]([CH3])([n]1ccnc1)[n]1ccnc1
inactive: dose: 6.25 mg/kg/injection, schedule: Q01DX005 (ip), vehicle: Klucel (hydroxypropylcellulose) (HPC) 120 % of control | dose: 12.5 mg/kg/injection, schedule: Q01DX005 (ip), vehicle: Klucel (hydroxypropylcellulose) (HPC) 119 % of control | [2] 120 % of control
